For data set [1], the system named is MCF-7 cells. Nature of the data set: Cell viability (MTT) assay, MCF-7. Format: cell-based. The following applies: Homo sapiens, read-out: Cell cytotoxicity assay IC50 MCF-7. The method, then:
(§1) Human breast cancer (MCF-7), and human prostate cancer (PC-3) cells were cultured in their respective media supplemented with 10% fetal bovine serum (FBS). The cells were cultured at 1 × 10^4 cells per well, in a 96-well plate and incubated for 24-48 h to obtain cell attachments. Afterwards, the cells were treated with different concentrations of test compounds for 48 h and then incubated with 20 µL of 5 mg/mL 3-(4,5-dimethylthiazol-2-yl)-2,5-diphenyl tetrazolium bromide (MTT) solution for 4 h. After aspiration of the MTT solution, 100 µL of DMSO was added to each well to dissolve formazan crystals. The absorbance of each well was measured at the wavelength of 550 nm using an enzyme-linked immunosorbent assay reader. IC50 values were calculated from the curves generated by plotting the percentage of the viable cells versus the test concentration on a logarithmic scale using SigmaPlot 10.0 software.

The target of data set [2] is T1, 20S proteasome ChT-L activity (Homo sapiens, UniProt P28074).
T1 construct: This assay measures the ChT-L protease activity in cultured cells; endogenous in cells; host or cells: MCF-7 and PC-3 cells
In words: Cell-based 20S proteasome ChT-L inhibition assay in MCF-7 cells. The method, then:
(§2) Cell-based proteasome inhibition assay
(§3) The effect of the derivatives on the 20S proteasome activity was determined using the 20S proteasome activity assay kit from Sigma (USA). This assay measures the ChT-L protease activity in cultured cells and is based on the detection of the fluorophore R110 after cleavage from the labeled substrate LLVY-R110. MCF-7 and PC-3 cells were pretreated with different concentrations of corresponding compounds and proteasome activities were determined according to the manufacturer′s protocol. Proteasome activity generates strongly green fluorescent R110, which was monitored at an excitation wavelength of 480 nm and emission of […] on a microplate fluorescence reader. All data were calculated by subtracting the blank control.

The test system of data set [3] is PC-3 cells. Nature of the data set: Cell viability (MTT) assay, PC-3. The settings on record: Homo sapiens, read-out: Cell cytotoxicity assay IC50 PC-3. The data set is classed as cell-based. The method, then:
as §1

Data set [4] deals with T1, 20S proteasome ChT-L activity. In words: Cell-based 20S proteasome ChT-L inhibition assay in PC-3 cells. On the procedure: as §2, §3
Where [5] appears, read: MCF7, MCF-7, MTT, 48 h treatment, mean ± SD of three independent experiments.
The mark [6] stands for this setting: MCF7, MCF-7 cells, percent inhibition at 10 µM, ChT-L activity, LLVY-R110 substrate, read-out: 20S proteasome inhibition, Inhibition [%] MCF-7.
[7] abbreviates: MCF-7 cells, ChT-L activity, LLVY-R110 substrate.
Setting [8] is: PC-3, MTT, 48 h treatment, mean ± SD of three independent experiments.
The mark [9] stands for this setting: PC-3 cells, percent inhibition at 25 µM, ChT-L activity, LLVY-R110 substrate, read-out: 20S proteasome inhibition, Inhibition [%] PC-3.
[10] abbreviates: PC-3 cells, ChT-L activity, LLVY-R110 substrate.

In PMC6094432, “Design, Synthesis and Evaluation of Substituted Aryl-2-Nitrovinyl Derivatives as Small Molecules Proteasome Inhibitors” (Iranian Journal of Pharmaceutical Research : IJPR, 2018) one finds IC50, inhibition and melting point data, which are given here for 17 compounds.

Like-named read-outs stand apart in the source and are kept apart here. A value given as a limit tells only on which side of the number the result lay.

With `CC(C)C[C@H](NC(=O)[C@H](Cc1ccccc1)NC(=O)c1cnccn1)B(O)O` [Bortezomib, bortezomib, reference compound], the IC50 stood at 0.04 ± 0.01 µM in data set [1] (MCF7, 48 h) and 0.26 ± 0.02 µM in data set [3] (PC-3, 48 h). Also, the inhibition at 10 µM in data set [2] (MCF7, read-out: 20S proteasome inhibition, Inhibition [%] MCF-7) worked out at 86.7 ± 5.1%. Besides, in data set [4] (PC-3, read-out: 20S proteasome inhibition, Inhibition [%] PC-3), the inhibition at 25 µM turned out to be 74 ± 4.6%.
As to `O=[N+]([O-])C=Cc1ccccc1` [Compound 1a, (2-nitrovinyl)benzene], the IC50 turned out to be 5.23 ± 0.17 µM in data set [1] (setting [5]), 3.67 ± 0.27 µM in data set [2] (setting [7]), 39.9 ± 0.97 µM in data set [3] (setting [8]) and 38 ± 3.24 µM in data set [4] (setting [10]). Also, the inhibition at 10 µM in data set [2] (setting [6]) was 85.2 ± 5.9%. Also, the inhibition at 25 µM in data set [4] (setting [9]) is 78.6 ± 3.2%.
Regarding `O=[N+]([O-])C=Cc1ccc(Cl)cc1` [Compound 1b, 1-chloro-4-(2-nitrovinyl)benzene], the IC50 worked out at 7.11 ± 0.22 µM in data set [1] (setting [5]), 5.63 ± 0.39 µM in data set [2] (setting [7]), 78.4 ± 3.22 µM in data set [3] (setting [8]) and 48 ± 5.39 µM in data set [4] (setting [10]). Besides, the inhibition at 10 µM in data set [2] (setting [6]) stood at 93.9 ± 2.4%. The inhibition at 25 µM in data set [4] (setting [9]) came to 84.3 ± 2.7%.
Regarding `Cc1ccc(C=C[N+](=O)[O-])cc1` [Compound 1c, 1-methyl-4-(2-nitrovinyl)benzene], the IC50 in data set [1] (setting [5]) amounted to 9.63 ± 0.25 µM; in data set [2] (setting [7]), 5.23 ± 0.15 µM; in data set [3] (setting [8]), 70.4 ± 4.33 µM; in data set [4] (setting [10]), 36 ± 2.14 µM. The inhibition at 10 µM in data set [2] (setting [6]) was 88.9 ± 4.6%. The inhibition at 25 µM in data set [4] (setting [9]) amounted to 80.1 ± 5.4%.
On to `COc1ccc(C=C[N+](=O)[O-])cc1` [Compound 1d, 1-methoxy-4-(2-nitrovinyl) benzene], for which the IC50 amounted to 2.2 ± 0.06 µM in data set [1] (setting [5]), 1.21 ± 0.07 µM in data set [2] (setting [7]), 60.3 ± 5.11 µM in data set [3] (setting [8]) and 29.4 ± 2.91 µM in data set [4] (setting [10]). In addition, the inhibition at 10 µM in data set [2] (setting [6]) stood at 89.6 ± 4.4%. The inhibition at 25 µM in data set [4] (setting [9]) was found to be 84.5 ± 3.9%.
Regarding `CN(C)c1ccc(C=C[N+](=O)[O-])cc1` [Compound 1e, N, N-dimethyl-4-(2-nitrovinyl)benzenamine], the IC50 is 43.9 ± 1.27 µM in data set [1] (setting [5]), over 50 µM in data set [2] (setting [7]), 188 ± 10.3 µM in data set [3] (setting [8]) and over 50 µM in data set [4] (setting [10]).
As to `O=[N+]([O-])C(=Cc1ccccc1)CO` [Compound 2a, 2-Nitro-3-phenylprop-2-en-1-ol], the IC50 in data set [1] (MCF7, 48 h) was 2.4 ± 0.08 µM; in data set [2] (setting [7]), 1.7 ± 0.02 µM; in data set [3] (PC-3, 48 h), 29.27 ± 0.12 µM; in data set [4] (setting [10]) it was 21.7 ± 1.17 µM. For the same compound, the inhibition at 10 µM in data set [2] (setting [6]) was found to be 90.3 ± 5%. The inhibition at 25 µM in data set [4] (setting [9]) is 72.4 ± 2.2%.
As to `O=[N+]([O-])C(=Cc1ccc(Cl)cc1)CO` [Compound 2b, 2-Nitro-3-(4-chlorophenyl)prop-2-en-1-ol], the IC50 was 17.34 ± 0.13 µM in data set [1] (MCF7, 48 h); 10.3 ± 0.17 µM in data set [2] (setting [7]); 20.79 ± 0.01 µM in data set [3] (PC-3, 48 h); 22.02 ± 0.09 µM in data set [4] (setting [10]). Also, the inhibition at 10 µM in data set [2] (setting [6]) is 44.1 ± 2.8%. Moreover, the inhibition at 25 µM in data set [4] (setting [9]) amounted to 40.3 ± 1.9%.
Compound `Cc1ccc(C=C(CO)[N+](=O)[O-])cc1` [Compound 2c, 2-Nitro-3-(4-tolyl)prop-2-en-1-ol] gave a melting point of 52 to 54 °C. The IC50 in data set [1] (MCF7, 48 h) is 5.08 ± 0.05 µM. The inhibition at 10 µM in data set [2] (setting [6]) came out at 93.4 ± 5.2%. Inhibition in data set [2] (setting [7]) was half-maximal at 2.82 ± 0.06 µM (IC50). The IC50 in data set [3] (PC-3, 48 h) stood at 46.6 ± 6.72 µM. Moreover, in data set [4] (setting [9]), the inhibition at 25 µM was determined as 87 ± 4.1%. Besides, it took 25.9 ± 2.37 µM to reach half-maximal inhibition in data set [4] (setting [10]) (IC50).
As to `COc1ccc(C=C(CO)[N+](=O)[O-])cc1` [Compound 2d, 2-Nitro-3-(4-methoxyphenyl)prop-2-en-1-ol], the IC50 in data set [1] (MCF7, 48 h) was determined as 1.17 ± 0.04 µM; in data set [2] (setting [7]) it was 0.71 ± 0.01 µM; in data set [3] (PC-3, 48 h), 32.3 ± 2.04 µM; in data set [4] (setting [10]), 17.8 ± 1.05 µM. In addition, the inhibition at 10 µM in data set [2] (setting [6]) amounted to 85 ± 6.1%. In data set [4] (setting [9]), the inhibition at 25 µM was found to be 86.3 ± 5%.
On to `O=[N+]([O-])C(=Cc1ccccc1)Cc1ccccc1` [Compound 4a, 3-(phenyl)-2-nitroallylbenzene], for which the IC50 is 10.7 ± 0.16 µM in data set [1] (MCF7, 48 h); 7.56 ± 0.11 µM in data set [2] (setting [7]); 48.8 ± 2.71 µM in data set [3] (PC-3, 48 h); 39.6 ± 16.3 µM in data set [4] (setting [10]). Also, the inhibition at 10 µM in data set [2] (setting [6]) turned out to be 54.9 ± 4.3%. In data set [4] (setting [9]), the inhibition at 25 µM was 42.7 ± 3.6%.
The compound `O=[N+]([O-])C(=Cc1ccc(Cl)cc1)Cc1ccccc1` [Compound 4b, 3-(4-chlorophenyl)-2-nitroallylbenzene] returned a melting point of 98 to 100 °C. Further, the IC50 in data set [1] (MCF7, 48 h) is 15.9 ± 0.2 µM. Also, the inhibition at 10 µM in data set [2] (setting [6]) was 50.4 ± 3.9%. This compound also displayed an IC50 in data set [2] (setting [7]) of 11.1 ± 0.17 µM. Also, in data set [3] (PC-3, 48 h), the IC50 came out at 70.74 ± 0.08 µM. Further, the inhibition at 25 µM in data set [4] (setting [9]) turned out to be 63.9 ± 4.4%. This compound also registered a half-maximal inhibitory concentration (IC50) in data set [4] (setting [10]) of 40.22 ± 0.07 µM.
Consider `Cc1ccc(C=C(Cc2ccccc2)[N+](=O)[O-])cc1` [Compound 4c, 3-(4-methylphenyl)-2-nitroallylbenzene], for which the melting point lay in the range of 105 to 107 °C. Besides, the IC50 in data set [1] (MCF7, 48 h) worked out at 16.56 ± 0.12 µM. Also, in data set [2] (setting [6]), the inhibition at 10 µM was 48.2 ± 2.8%. Moreover, inhibition in data set [2] (setting [7]) was half-maximal at 9.92 ± 0.27 µM (IC50). Also, the IC50 in data set [3] (PC-3, 48 h) was 62.7 ± 4.21 µM. Moreover, in data set [4] (setting [9]), the inhibition at 25 µM is 50.8 ± 2.7%. The compound further displayed an IC50 in data set [4] (setting [10]) of 30.1 ± 3.74 µM.
`COc1ccc(C=C(Cc2ccccc2)[N+](=O)[O-])cc1` [Compound 4d, 3-(4-methoxyphenyl)-2-nitroallylbenzene]: the melting point was in the range of 53 to 56 °C. For the same compound, the IC50 in data set [1] (MCF7, 48 h) stood at 4.72 ± 0.07 µM. For the same compound, the inhibition at 10 µM in data set [2] (setting [6]) is 60.4 ± 4.1%. The compound further yielded an IC50 in data set [2] (setting [7]) of 3.57 ± 0.13 µM. The half-inhibitory concentration (IC50) in data set [3] (PC-3, 48 h) amounted to 79.6 ± 4.6 µM. The inhibition at 25 µM in data set [4] (setting [9]) was found to be 54.4 ± 3.3%. Besides, the IC50 in data set [4] (setting [10]) stood at 42.8 ± 5.11 µM.
Compound `CN(C)c1ccc(C=C(Cc2ccccc2)[N+](=O)[O-])cc1` [Compound 4e, N, N-dimethyl-4-(2-nitro-3-phenylprop-1-enyl)benzenamine] came in with a melting point of 110 to 113 °C. Further, the IC50 in data set [1] (MCF7, 48 h) worked out at 20.85 ± 0.09 µM. In data set [2] (setting [7]), the half-maximal inhibitory concentration (IC50) was over 50 µM. For the same compound, the IC50 in data set [3] (PC-3, 48 h) was 332 ± 12.3 µM. Further, in data set [4] (setting [10]), the IC50 was over 50 µM.
As to `Cc1ccc(C=C(CC(C)C)[N+](=O)[O-])cc1` [Compound 6a, 1-methyl-4-(4-methyl-2-nitropent-1-enyl)benzene], the IC50 in data set [1] (MCF7, 48 h) came to 24.08 ± 0.18 µM; in data set [2] (setting [7]), 13.7 ± 4.64 µM; in data set [3] (PC-3, 48 h) it was 73.1 ± 3.63 µM; in data set [4] (setting [10]), 36.1 ± 4.1 µM. The inhibition at 10 µM in data set [2] (setting [6]) amounted to 43.9 ± 0.98%. The inhibition at 25 µM in data set [4] (setting [9]) is 40.3 ± 1.2%.
Regarding `COc1ccc(C=C(CC(C)C)[N+](=O)[O-])cc1` [Compound 6b, 1-methoxy-4-(4-methyl-2-nitropent-1-enyl)benzene], the IC50 in data set [1] (MCF7, 48 h) is 5.27 ± 0.03 µM; in data set [2] (setting [7]), 3.82 ± 0.15 µM; in data set [3] (PC-3, 48 h) it was 60.07 ± 0.01 µM; in data set [4] (setting [10]) it was 20.5 ± 1.09 µM. Moreover, the inhibition at 10 µM in data set [2] (setting [6]) worked out at 45.7 ± 3.6%. Further, the inhibition at 25 µM in data set [4] (setting [9]) is 50.2 ± 3.5%.

The IC50 is the concentration needed to halve the response being measured. One may read the inhibition as how much of the control response was suppressed. For orientation: melting point means the temperature of the solid-liquid transition.
